The structures appear in SMILES notation.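 Dose response: 5 concentrations. Exposure: 48 h. Format: 96-well plates. Endpoint: linear interpolation; highest concentration if not reached. GI50: concentration for 50% inhibition of growth.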 Calls of active or inactive are those of the source. Cut-off read from the data, not from the text of the source: active = GI50 up to about 1.1 µM and inactive = higher.

Among the test systems are SK-OV-3; HOP-62; HL-60; K562; MDA-MB-435; SF-539; SK-MEL-28; NCI/ADR-RES; RPMI-8226; UACC-257; HCT-15; Malme-3M; SR; 786-0; TK-10; COLO 205; UACC-62; NCI-H522; CCRF-CEM; RXF 393.
Common to all, as to assay: DTP human tumour cell line panel, 48 h

As for `CC(=O)c1ccccc1NS(=O)(=O)c1ccc2nc(C)n(NS(=O)(=O)c3ccccc3C(C)=O)c(=O)c2c1`, the GI50 with SK-OV-3, in the test on HOP-62, in the test on HL-60, with K562, with MDA-MB-435 and in the test on SF-539 was > 100 µM (inactive) throughout. Moreover, the GI50 was > 100 µM (inactive) with SK-MEL-28; > 100 µM (inactive) in the test with NCI/ADR-RES; > 100 µM (inactive) in the test with RPMI-8226; > 100 µM (inactive) in the test with UACC-257; greater than 100 µM in the test with HCT-15; > 100 µM (inactive) in the test on Malme-3M. For the same compound, the GI50 with SR, in the test with 786-0, with TK-10, with COLO 205, in the test with UACC-62 and in the test with NCI-H522 was > 100 µM (inactive) throughout. Further, the GI50 with CCRF-CEM and with RXF 393 was > 100 µM (inactive) in each case.

Regarding `CNCCN[C@@H]1c2cc3c(cc2[C@@H](c2cc(OC)c(O)c(OC)c2)[C@H]2C(=O)OC[C@@H]21)OCO3`, the GI50 in the test with SK-OV-3 is 0.264 µM (active); with HOP-62 it was 0.141 µM (active); in the test on HL-60, < 0.016 µM (active); in the test on K562, 0.177 µM (active); in the test with MDA-MB-435 it was 1.66 µM (inactive); with SF-539 it was 0.0678 µM (active). In addition, the concentration for 50% growth inhibition (GI50) in the test with SK-MEL-28 was 0.665 µM (active); in the test on NCI/ADR-RES, 68.2 µM (inactive); in the test on RPMI-8226, 0.0604 µM (active); in the test on UACC-257 it was 0.652 µM (active); in the test on HCT-15, 3.21 µM; in the test on Malme-3M, 0.288 µM (active). Further, the GI50 in the test with SR was 0.0122 µM (active); in the test with 786-0, 0.144 µM (active); in the test with TK-10, 1.49 µM (inactive); with COLO 205, 1.23 µM (inactive); in the test on UACC-62, 0.132 µM (active); with NCI-H522 it was 0.251 µM (active). Also, the results for the GI50 with CCRF-CEM and in the test on RXF 393 were 0.0138 µM (active) and 0.229 µM (active), respectively.

For the compound `CC1(C)CCN2C(=O)C34CCCC3CC21S4` (stereo not given), the GI50 in the test on SK-OV-3, with HOP-62, in the test on HL-60, in the test with K562, in the test with MDA-MB-435 and in the test on SF-539 was > 100 µM (inactive) each time. In addition, the GI50 was > 100 µM (inactive) in the test on SK-MEL-28; > 100 µM (inactive) with NCI/ADR-RES; > 100 µM (inactive) with RPMI-8226; > 100 µM (inactive) in the test on UACC-257; greater than 100 µM with HCT-15; > 100 µM (inactive) in the test with Malme-3M. The GI50 in the test with SR, in the test with 786-0, with TK-10, in the test on COLO 205, with UACC-62 and with NCI-H522 was > 100 µM (inactive) throughout. For the same compound, the GI50 was 78 µM (inactive) in the test on CCRF-CEM and > 100 µM (inactive) with RXF 393.

For `CC[C@@]1(O)C(=O)OCc2c1cc1n(c2=O)Cc2c-1nc1ccccc1c2/C=N\NC(=O)C(N)CO` (stereo not given in full), the GI50 is 2.36 µM (inactive) with SK-OV-3; 0.201 µM (active) in the test on HOP-62; 0.335 µM (active) in the test with HL-60; 1.05 µM (active) in the test with K562; 4.25 µM (inactive) in the test on MDA-MB-435; 0.138 µM (active) in the test on SF-539. Further, the GI50 is 19.2 µM (inactive) in the test on SK-MEL-28; 0.785 µM (active) with NCI/ADR-RES; 1.13 µM (inactive) with RPMI-8226; 3.59 µM (inactive) in the test with UACC-257; 4.1 µM in the test with HCT-15; 9.04 µM (inactive) in the test with Malme-3M. Besides, the GI50 with SR is 0.0386 µM (active); in the test with 786-0, 0.34 µM (active); with TK-10, > 60.7 µM (inactive); in the test on COLO 205, 32.1 µM (inactive); with UACC-62, < 0.0395 µM (active); with NCI-H522 it was 1.28 µM (inactive). Moreover, the GI50 is 0.0474 µM (active) with CCRF-CEM and 1.14 µM (inactive) in the test on RXF 393.

`CCOc1ccc2nc(NC(=O)C(=O)C(C(=O)c3ccccc3-c3ccccc3)C3OC(=O)c4ccccc43)sc2c1` (stereo not given): the GI50 in the test with SK-OV-3 was 25.9 µM (inactive); in the test with HOP-62, 25.5 µM (inactive); in the test on HL-60 it was 22.8 µM (inactive); in the test on K562, 22.3 µM (inactive); in the test with MDA-MB-435 it was 25.4 µM (inactive); in the test on SF-539, 8.32 µM (inactive). Moreover, the GI50 in the test on SK-MEL-28 was 20.2 µM (inactive); in the test on NCI/ADR-RES, 12.1 µM (inactive); in the test on RPMI-8226, 12.2 µM (inactive); with UACC-257, 22.4 µM (inactive); in the test with HCT-15, 22.4 µM; in the test with Malme-3M, 13.8 µM (inactive). The GI50 in the test with SR was 9.79 µM (inactive); in the test with 786-0, 16.5 µM (inactive); with TK-10, 16.5 µM (inactive); in the test on COLO 205, 19.4 µM (inactive); in the test with UACC-62, 16.4 µM (inactive); in the test on NCI-H522, 16.7 µM (inactive). Besides, the GI50 was 21.1 µM (inactive) with CCRF-CEM and 13.4 µM (inactive) in the test on RXF 393.

`CC(=O)c1c(SCCN2CCCCCC2)n(-c2ccccc2)c(=S)n(-c2ccccc2)c1=O`: the GI50 was 48.3 µM (inactive) in the test with SK-OV-3; 19.5 µM (inactive) in the test on HOP-62; 0.019 µM (active) in the test on HL-60; 2.61 µM (inactive) with K562; 12.9 µM (inactive) in the test on MDA-MB-435; 6 µM (inactive) in the test on SF-539. The GI50 is 11.2 µM (inactive) with SK-MEL-28; 34.5 µM (inactive) in the test on NCI/ADR-RES; 0.384 µM (active) with RPMI-8226; 4.07 µM (inactive) in the test with UACC-257; 5.61 µM with HCT-15; 1.51 µM (inactive) in the test with Malme-3M. Moreover, the GI50 in the test with SR is 1.09 µM (active); in the test with 786-0, 1.73 µM (inactive); in the test with TK-10, 2.07 µM (inactive); in the test with COLO 205, 2.03 µM (inactive); with UACC-62, 7.85 µM (inactive); in the test on NCI-H522 it was 1.43 µM (inactive). The GI50 with CCRF-CEM was 0.0462 µM (active); in the test with RXF 393, 1.73 µM (inactive).

As for `CN(C)CCCCN1c2ccccc2Sc2ccc(C(=O)c3ccccc3)cc21`, the GI50 is 13 µM (inactive) in the test with SK-OV-3; 3.13 µM (inactive) with HOP-62; 1.85 µM (inactive) in the test with HL-60; 1.57 µM (inactive) in the test with K562; 1.9 µM (inactive) with MDA-MB-435; 3.29 µM (inactive) in the test with SF-539. The GI50 with SK-MEL-28 was 1.95 µM (inactive); in the test on NCI/ADR-RES, 4.39 µM (inactive); in the test on RPMI-8226 it was 2.24 µM (inactive); with UACC-257, 1.94 µM (inactive); with HCT-15 it was 3.51 µM; in the test with Malme-3M it was 1.72 µM (inactive). Also, the GI50 in the test on SR is 3.83 µM (inactive); with 786-0, 1.82 µM (inactive); with TK-10, 3.8 µM (inactive); in the test with COLO 205, 1.64 µM (inactive); with UACC-62, 2.37 µM (inactive); with NCI-H522, 2.91 µM (inactive). For the same compound, the values for the GI50 in the test with CCRF-CEM and in the test with RXF 393 were 2.27 µM (inactive) and 1.22 µM (inactive), respectively.

`O=C(c1cccs1)N1CCN(C(=O)c2cccs2)C1=S`: the GI50 in the test with SK-OV-3 is 15.6 µM (inactive); in the test on HOP-62, 5.04 µM (inactive); in the test on HL-60, 2.23 µM (inactive); with K562, 3.05 µM (inactive); in the test on MDA-MB-435, 2.88 µM (inactive); with SF-539, 1.81 µM (inactive). Also, the GI50 was 5.13 µM (inactive) in the test on SK-MEL-28; 16.7 µM (inactive) in the test with NCI/ADR-RES; 1.63 µM (inactive) in the test with RPMI-8226; 6.19 µM (inactive) in the test on UACC-257; 3.99 µM in the test on HCT-15; 9.38 µM (inactive) in the test on Malme-3M. The GI50 with SR is 3.43 µM (inactive); in the test on 786-0, 2.75 µM (inactive); in the test on TK-10 it was 5.4 µM (inactive); in the test on COLO 205, 7.35 µM (inactive); in the test on UACC-62, 5.89 µM (inactive); in the test on NCI-H522 it was 3.98 µM (inactive). Moreover, the results for the GI50 in the test with CCRF-CEM and in the test with RXF 393 were 2.69 µM (inactive) and 2.6 µM (inactive), respectively.

A word on the GI50: it is the concentration giving 50% growth inhibition.
